This is an account of results in patent publication US12668572B2, “Degradable lipid for active molecule delivery and lipid nanoparticle thereof” (BEIJING CARRIUS BIO LTD., priority 2023, dated 2026).

In this test the test system is expression of luciferase (firefly luciferase mRNA) in liver. Briefly: In vivo luciferase imaging (IVIS) of liver after tail vein administration of Fluc mRNA/LNPs. Set-up: species or system Balb/c mice. To be noted: 6 hours; for Average intensity (comparison with SM102 and MC3): N/P 7.5, tail vein, liver. The procedure:
In order to achieve mRNA delivery at animal level, the inventors prepared mRNA/lipid nanoparticles using the method as follows: formulating each of the ionizable lipid compounds (YX8, YX17, YX31, YX27, YX28, YX35, YX29 or YX33) prepared in Example 1, cholesterol, DOPE and DMG-PEG2000 into a 10 mg/mL ethanol solution. Taking YX27 as an example, when preparing an mRNA/LNP complex in a single time, YX27 solution (1.6 mg) was measured and mixed with cholesterol, DOPE and DMG-PEG2000 according to a molar ratio of 50:38.5:10:1.5, and the total volume of the solution was allowed to reach 450 μl by supplementing ethanol. 150 μg of firefly luciferase mRNAs were taken and added to a sodium acetate buffer (50 mM, pH=5.2), and the total volume of the solution was 1350 μl. The ionizable lipid compound solution and the mRNA solution were mixed by introducing into a microfluidic machine (speed: 0.2 mL/min of ethanol solution, and 0.6 mL/min of sodium acetate buffer solution) to prepare lipid nanoparticles encapsulating mRNAs, which were dialyzed against PBS buffer for 2 hours, and the obtained samples were directly used for animal experiments. The ratio of the ionizable lipid compound YX27 to mRNAs was calculated according to the molar ratio (N/P) of the nitrogen atoms in YX27 to the phosphorus atoms in the phosphate skeleton of the mRNAs. In this example, N/P was 7.5.
In order to verify the delivery effect of the above Fluc mRNA/LNP preparation, YX27 LNPs encapsulating 150 μg/kg Fluc mRNAs were injected into 6-8 week-old female Balb/c mice by administration via tail vein, or YX27 LNPs encapsulating 250 μg/kg Fluc mRNAs were injected into the hind legs of mice by intramuscular administration; after 6 hours, 200 μl of D-Lucifin (with a mass fraction of 30%) was injected by intraperitoneal administration, and the expression and intensity of luciferase in the whole body, liver and muscle administration sites were detected by PerkinElmer IVIS Lumina III small animal in vivo optical imaging system. In order to study the effect of the hydrophobic chain length of lipid compounds on mRNA delivery efficiency, LNP samples encapsulating Fluc mRNAs were prepared using lipid compounds YX9, YX8, YX17 and YX31 respectively according to YX27 experimental operation, and the efficiency of luciferase expression in mice was studied.
In order to study the effect of the mixing ratio (N/P ratio) of ionizable lipids and mRNAs as the LNP components on the mRNA delivery efficiency, mixed samples of YX27 and luciferase mRNAs at N/P ratios of 7.5 and 9 were prepared according to the operation steps of Example 2, the mRNA delivery and the expression and intensity of luciferase in the whole body, liver and other sites were studied by administration via tail vein (the delivery results are shown in FIG. 3 and the table below).
LNPs containing SM102 or MC3 as the cationic lipid and luciferase mRNAs at an N/P ratio of 7.5 were prepared according to the operation steps of Example 2, in which the dose of Fluc mRNAs was 25 μg/kg, 50 μg/kg or 150 μg/kg respectively; and then the mRNA delivery by the prepared LNPs and the expression and intensity of luciferase in the whole body, liver and other sites were studied by administration via tail vein. The delivery results are shown in FIG. 4A, FIG. 4B and the table below.
In order to verify the expression efficiency of luciferase after administration of Fluc mRNA/LNPs as a function of time, YX27 solution encapsulating 150 μg/kg of Fluc mRNAs was injected into 6-8 week-old female Balb/c mice by administration via tail vein; 2 h, 4 h, 6 h, 18 h and 24 h after administration respectively, 200 μl of D-Lucifin (with a mass fraction of 30%) was injected by intraperitoneal administration, and the expression and intensity of luciferase in the whole body and liver site were detected by PerkinElmer IVIS Lumina III small animal in vivo optical imaging system. […]

On to `CCCCC/C=C\C/C=C\CCCCCCCCC(CCCCCCCC/C=C\C/C=C\CCCCC)OC(=O)CCCN(C)C` [MC3, D-Lin-MC3-DMA], for which the “Average intensity (comparison with SM102 and MC3)” value reads like this: (Fluc mRNA dose 25 μg/kg) 4.28E+08 p/s; (Fluc mRNA dose 50 μg/kg) 8.40E+08 p/s; (Fluc mRNA dose 150 μg/kg) 7.16E+09 p/s.

Turning to `CCCCCCCCCCCOC(=O)CCCCCN(CCO)CCCCCCCC(=O)OC(CCCCCCCC)CCCCCCCC` [SM102], for the setting “Fluc mRNA 50 μg/kg, N/P 7.5, liver tissue”, the “Average intensity 50 μg/kg (lipids with different structures)” value is 2.02E+09 p/s. In addition, the “Average intensity 150 μg/kg (lipids with different structures)” value (Fluc mRNA 150 μg/kg, N/P 7.5, liver tissue) came out at 5.65E+09 p/s. For the same compound, the “Average intensity (comparison with SM102 and MC3)” value runs as follows: (Fluc mRNA dose 25 μg/kg) 1.20E+09 p/s; (Fluc mRNA dose 50 μg/kg) 2.02E+09 p/s; (Fluc mRNA dose 150 μg/kg) 5.65E+09 p/s.
